From US20060014219A1 (priority 2002, published 2006)
Read-outs that look alike come from different tables or passages of the source.

Columns and labels:
[1] = system: tobacco budworm GABA-gated chloride channel; assay type: cell-based; conditions: for Fluorescence: then GABA, HEK a-3 cells, average of three tests
Description: The following solutions were prepared prior to or on the same day the experiment was to be carried out: • Solution A: To about one liter of deionized water was added 8.0 grams of sodium chloride, 0.395 gram of potassium chloride, 0.294 gram of calcium chloride, 0.203 gram of magnesium chloride, 4.5 grams of glucose, and 2.38 grams of [4-(2-hydroxyethyl)-1-piperazineethanesulfonic acid (“HEPES”) (all available from Aldrich Chemical Company, Milwaukee, Wis.). The resulting solution was stirred until dissolution was complete and then the pH adjusted to 7.3 to 7.4 with an aqueous 1 M sodium hydroxide solution. • Solution B: To one vile of the dye (“FLIPR® Membrane Potential Assay Reagent, Component A”) contained in the FLIPR® Membrane Potential Assay Kit was added about 10 ml of Solution A. The resulting mixture was mixed by repeated pippetting until the content of the vile was completely dissolved and used immediately or stored at […] for future use.
The following solution was prepared on the same day the experiment was to be carried out: • Solution C: To solution B was added about 90 mL of Solution A. The resulting mixture was mixed until dissolution was complete. • Solution D: GABA (available from Sigma Chemical Co., St. Louis, Mo.), […], was taken up in 30 ml of Solution A. The resulting solution was mixed until dissolution was completion, yielding a […] GABA solution. • Solution E: To 1.2 ml of Solution D was added 38.8 ml of Solution A. The resulting mixture was mixed by repeated pippetting until dissolution was complete, yielding a 300 μM GABA solution.
On the same day the experiment is to be carried, Solutions A-E are prepared again in the manner described above.
(§1) One day before of the experiment, HEK a-3 cells were seeded into two wells of a poly-D-lysine coated blackwall 96 well microplate with clear bottom at a cell density of about 100,000 cells per well. Upon completion of addition, the cells were incubated at 37° C. in a cell culture incubator for twenty-four hours, for use below.
In carrying out the first step, on the day of the experiment, the 96 well microplate containing the HEK a-3 cells was removed from the incubator and 100 μl of Solution C was added to the two wells of the 96 well microplate. Upon completion of addition, the microplate was allowed to stand at ambient temperature of 3.5 to 4 hours. After this time, the microplate was placed onto the FLIPR^384® Fluorometric Imaging Plate Reader system in which the laser intensity was set at a suitable level to obtain a basal value of approximately 10,000 fluorescence units, fluorescent readings were obtained every one second for the first minute and then every six seconds thereafter, and fluorescence measurements were captured by a cooled CCD camera. After ten seconds from the start of the fluorescence measurements, 25 μl of Solution E was added at a rate of 25 μl/second by the system to one of the two wells of the 96 well microplate. Upon completion of addition, the level of fluorescence of the HEK a-3 cells was determined using the FLIPR^384® Fluorometric Imaging Plate Reader system.
as §1, with “each well” for “two wells”, “bottom (available from Becton, Dickinson and Company, Franklin Lakes, N.J.)” for “bottom”
In carrying out the first step, on the day of the experiment, the 96 well microplate containing the HEK a-3 cells was removed from the incubator and 100 μl of Solution C were added to each well of the 96 well microplate. Upon completion of addition, the microplate was stored at ambient temperature for 3.5 to 4 hours. […]

[2] = system: tobacco budworm GABA-gated chloride channel; assay: Fluorescence in HEK a-3 cells by the standard protocol of the FLIPR Membrane Potential Assay Kit; assay type: cell-based; conditions: 25 μl of 300 μM GABA solution; dye incubated at 37° C. for 0.5 to one hour; FIG. 1
Description: This example illustrates the measurement of fluorescence in HEK a-3 cells in the manner described in the protocol for the FLIPR® Membrane Potential Assay Kit.
The following solutions were prepared prior to or on the same day the experiment was to be carried out: • Solution A: To about one liter of deionized water was added 8.0 grams of sodium chloride, 0.395 gram of potassium chloride, 0.294 gram of calcium chloride, 0.203 gram of magnesium chloride, 4.5 grams of glucose, and 2.38 grams of [4-(2-hydroxyethyl)-1-piperazineethanesulfonic acid (“HEPES”) (all available from Aldrich Chemical Company, Milwaukee, Wis.). […]
In carrying out the first step, on the day of the experiment, the 96 well microplate containing the HEK a-3 cells was removed from the incubator and 100 μl of Solution C was added to the two wells of the 96 well microplate. […] After this time, the microplate was placed onto the FLIPR^384® Fluorometric Imaging Plate Reader system in which the laser intensity was set at a suitable level to obtain a basal value of approximately 10,000 fluorescence units, fluorescent readings were obtained every one second for the first minute and then every six seconds thereafter, and fluorescence measurements were captured by a cooled CCD camera. […]

[3] = 10 μM compound, [1 − (fluorescence of test compound/fluorescence of control)] × 100
[4] = 0.003 μM compound, relative to DMSO control
[5] = 0.01 μM compound, relative to DMSO control
[6] = 0.03 μM compound, relative to DMSO control
[7] = 0.1 μM compound, relative to DMSO control
[8] = 0.3 μM compound, relative to DMSO control
[9] = 1 μM compound, relative to DMSO control
[10] = 3 μM compound, relative to DMSO control

SMILES | Fluorescence ([1]; 10 μM compound) | % Inhibition [1, 3] [%] | Fluorescence ([1]; 0.003 μM compound) | % Inhibition [1, 4] [%] | Fluorescence ([1]; 0.01 μM compound) | % Inhibition [1, 5] [%] | Fluorescence ([1]; 0.03 μM compound) | % Inhibition [1, 6] [%] | Fluorescence ([1]; 0.1 μM compound) | % Inhibition [1, 7] [%] | Fluorescence ([1]; 0.3 μM compound) | % Inhibition [1, 8] [%] | Fluorescence ([1]; 1 μM compound) | % Inhibition [1, 9] [%] | Fluorescence ([1]; 3 μM compound) | % Inhibition [1, 10] [%] | change in fluorescence after addition of GABA [2] | change in fluorescence after addition of GABA ([1]; 25 μl of 300 μM GABA solution, dye at ambient temperature 3.5 to 4 hours, FIG. 2)
CN1CCc2cc3c(cc2[C@H]1[C@@H]1OC(=O)c2c1ccc1c2OCO1)OCO3 [Bicuculine, bicuculine] | 11543 | 5 |  |  |  |  |  |  |  |  |  |  |  |  |  |  |  | 
ClC1=C(Cl)[C@]2(Cl)[C@@H]3[C@@H]4C[C@@H]([C@H]5O[C@@H]45)[C@@H]3[C@@]1(Cl)C2(Cl)Cl [Dieldrin, dieldrin] | 67 | 100 | 13284 | −1 | 12339 | 5 | 11492 | 12 | 9924 | 34 | 7279 | 44 | 4184 | 68 | 900 | 93 |  | 
O=S1OCC2C(CO1)C1(Cl)C(Cl)=C(Cl)C2(Cl)C1(Cl)Cl (stereo not drawn) [Endosulfan, endosulfan] | 993 | 93 | 14343 | −3 | 15198 | −9 | 11074 | 20 | 7098 | 48 | 4426 | 68 | 1903 | 86 | 1615 | 88 |  | 
N#Cc1nn(-c2c(Cl)cc(C(F)(F)F)cc2Cl)c(N)c1[S+]([O-])C(F)(F)F (stereo not drawn) [Fipronil, fipronil] | 628 | 95 | 11275 | 10 | 8328 | 43 | 6441 | 48 | 4469 | 64 | 2990 | 76 | 1790 | 86 | 1031 | 92 |  | 
NCCCC(=O)O [GABA, Gamma amino-n-butyric acid] |  |  |  |  |  |  |  |  |  |  |  |  |  |  |  |  | no change in fluorescence was observed | an increase in fluorescence
CCCC(C)C1(CC)C(=O)NC(=O)NC1=O (stereo not drawn) [Pentabarbitol] | 11575 | 5 |  |  |  |  |  |  |  |  |  |  |  |  |  |  |  | 
